Assay: Antimicrobial efficacy of the inorganic salt on its own
Conditions: salt alone at the concentration employed in the solutions

SMILES | antimicrobial efficacy of the salt on its own
[Cl-].[Na+] [sodium chloride] | no antimicrobial efficacy on its own
N.N.O=S(=O)(O)O [ammonium sulphate] | no antimicrobial efficacy on its own
